Marks after values point to notes of the source that are not given here.
Experiments:
[1] = tested on: rats; test: rat gastric emptying, phenol red method; assay type: in vivo; settings: for % GASTRIC EMPTYING: rat, oral
[2] = tested on: rats; test: gastrointestinal motility in rats, charcoal meal test; assay type: in vivo, rat; settings: for effect on gastrointestinal motility in the rat: charcoal meal test; for % CHANGE FROM VEHICLE-TREATED ANIMALS / GROUP MEAN DISTANCE TRAVELLED BY CHARCOAL AS % OF TOTAL GUT LENGTH ± SD: rat, oral
From the text: Thus, the distance travelled by the charcoal meal in each Compound (I)-treated group was similar to the vehicle-treated group at each tested dose.

[3] = tested on: guinea-pig enteric neurones; test: slow EPSP in guinea-pig enteric neurones; assay type: cell-based; settings: 0.1 microM
Procedure: The slowEPSP was elicited by high frequency (20 Hz) electrical stimulation for 1 s, applied to a circumferential internodal strand connecting to the ganglion. […] It was perfused continuously and the slowEPSP was tested at various intervals. In all four neurons there was a decrease of peak amplitude of depolarisation of over 50% when compared with baseline, once the drug had circulated for at least 30 minutes.

[4] = tested on: guinea-pig isolated colon; test: stretch-induced reflex activity in guinea-pig isolated colon; settings: 250 nM applied for 30-45 min; 6, 12 or 20 g weights; greater at higher distension
From the text: For reflex studies, 5-7 cm lengths of colon were suspended in warmed, oxygenated physiological saline, so that an 8 mm metal bar could be inserted into the lumen and connected, via a thread passing through the intestinal wall, to a pulley system which allowed different weights to pull on the bar and distend the intestine. Force transducers were attached to the wall of the colon via small wire hooks, 5 mm either side of the distending bar. Colonic wall distension using 6, 12 or 20 g weights evoked rhythmic contractions oral to the distension and a small relaxation on the anal side. Application of 12 and 20 g weights evoked similar patterns of activity and although the small relaxation on the anal side of the distension seemed more apparent, the oral excitatory response was not different from the effects of the 6 g weight.

[5] = tested on: rats; test: small intestinal transit in normal, non-sensitised animals; assay type: in vivo, rat; settings: 15 mg/kg po
[6] = tested on: rats; test: egg-albumin sensitized increase in rat small intestinal transit; assay type: in vivo; settings: pre-treatment 15 mg/kg po
[7] = tested on: conscious rats; test: colo-rectal distension in conscious rats (intestinal nociception); assay type: in vivo, rat
[8] = molecular target: T1, rat NK-3 receptor (Rattus norvegicus, UniProt P16177); test: affinity for the rat NK-3 receptor; assay type: binding; settings: relative to its higher affinity for the human or guinea-pig variants
T1 sequence (P16177 1-452): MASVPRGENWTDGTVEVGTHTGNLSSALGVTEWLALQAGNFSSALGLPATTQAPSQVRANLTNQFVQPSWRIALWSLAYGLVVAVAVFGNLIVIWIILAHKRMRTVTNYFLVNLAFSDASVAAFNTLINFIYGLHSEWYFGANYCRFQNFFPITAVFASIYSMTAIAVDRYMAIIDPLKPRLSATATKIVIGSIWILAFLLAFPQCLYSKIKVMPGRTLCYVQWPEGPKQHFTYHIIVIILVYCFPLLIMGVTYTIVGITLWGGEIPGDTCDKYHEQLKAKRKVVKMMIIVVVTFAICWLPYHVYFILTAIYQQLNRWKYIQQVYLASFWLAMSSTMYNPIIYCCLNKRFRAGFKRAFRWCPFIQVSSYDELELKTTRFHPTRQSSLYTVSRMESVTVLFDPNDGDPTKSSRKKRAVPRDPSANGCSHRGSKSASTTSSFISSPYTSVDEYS

Structure (SMILES): CC[C@H](NC(=O)c1c(O)c(-c2ccccc2)nc2ccccc12)c1ccccc1 [Compound (I), (S)-N-(α-ethylbenzyl)-3-hydroxy-2-phenylquinoline-4-carboxamide]
- effect on rat gastric emptying ([1]; oral doses of 5, 15 and 50 mg/kg): no marked or statistically significant effects
- % GASTRIC EMPTYING ([1]; 5 mg/kg): 55.2%
- % GASTRIC EMPTYING ([1]; 15 mg/kg): 50.7%
- % GASTRIC EMPTYING ([1]; 50 mg/kg): 62.4%
- effect on gastrointestinal motility in the rat ([2]; oral, 5, 15 and 50 mg/kg): no marked or statistically significant effect
- % CHANGE FROM VEHICLE-TREATED ANIMALS ([2]; 5 mg/kg): −11.5%
- GROUP MEAN DISTANCE TRAVELLED BY CHARCOAL AS % OF TOTAL GUT LENGTH ± SD ([2]; 5 mg/kg): 46.9 ± 5.3%
- % CHANGE FROM VEHICLE-TREATED ANIMALS ([2]; 15 mg/kg): −1.7%
- GROUP MEAN DISTANCE TRAVELLED BY CHARCOAL AS % OF TOTAL GUT LENGTH ± SD ([2]; 15 mg/kg): 52.1 ± 7.1%
- % CHANGE FROM VEHICLE-TREATED ANIMALS ([2]; 50 mg/kg): −4.9%
- GROUP MEAN DISTANCE TRAVELLED BY CHARCOAL AS % OF TOTAL GUT LENGTH ± SD ([2]; 50 mg/kg): 50.4 ± 8.6%
- decrease of peak amplitude of depolarisation of slowEPSP compared with baseline ([3]; circulated at least 30 minutes, all four neurons): over 50%
- blockade of slowEPSP ([3]; one neuron): 100%
- blockade of slowEPSP based on the amplitude of depolarisation ([3]; the other three neurons): 60-80%
- effect on reflexes evoked by colonic wall distension [4]: reduced the effects of distension
- effect on small intestinal transit [5]: did not significantly affect
- effect on increased transit after egg-albumin sensitisation [6]: greatly inhibited
- antinociceptive effect during colo-rectal distension ([7]; 10 mg/kg po): without anti-nociceptive activity
- antinociceptive effect during colo-rectal distension ([7]; 30 mg/kg po): statistically significant only at the highest distension pressure
- effect on colo-rectal tone ([7]; 50 mg/kg po): without affecting colo-rectal tone
- antinociceptive effect during colo-rectal distension ([7]; 50 mg/kg po, 30, 45 and 60 mmHg distension pressures): significant antinociceptive effect
- affinity for the rat NK-3 receptor [8]: low affinity

Structure (SMILES): CN1CC[C@]23c4c5ccc(O)c4O[C@H]2[C@@H](O)C=C[C@H]3[C@H]1C5.O=S(=O)(O)O [Morphine sulfate, reference compound]
- effect on rat gastric emptying ([1]; orally at 20 mg/kg): marked and statistically significant decrease
- % GASTRIC EMPTYING ([1]; 20 mg/kg): 30.8** %
- effect on gastrointestinal motility in the rat ([2]; oral dose of 10 mg/kg): marked and statistically significant decrease
- % CHANGE FROM VEHICLE-TREATED ANIMALS ([2]; 10 mg/kg): −29.4%
- GROUP MEAN DISTANCE TRAVELLED BY CHARCOAL AS % OF TOTAL GUT LENGTH ± SD ([2]; 10 mg/kg): 37.4 ± 12.4%

— patent US20040152727A1, “Novel use” (priority 2001, published 2004)
